Results: patent publication US8114641B2, “Methylbutanol as an advanced biofuel” (Synthetic Genomics, Inc., priority 2007, dated 2012)
Where two headings read alike, the source gives them in different places. Blank lines part the entries; values can stand above or below the molecule they belong to.

How the values were obtained:
[1] = based on literature review; cited from earlier work
[2] = 10% blend in gasoline; value based on literature review; cited from earlier work
[3] = 10% blend in gasoline
[4] = Fuel properties of the neat fuel
[5] = Physical properties of alcohol fuels and gasoline; format: physicochemical
[6] = Keto acid decarboxylase activity on pyruvate, crude extracts; format: biochemical; conditions: crude extract, S. cerevisiae PDC1 deletion host; sigmoidal curves
Method: (§1) The Lactococcus lactis KdcA and S. cerevisiae and P. stipitis PDCs were cloned into yeast expression vector p415 under the control of TEF promoter. The host strain was a PDC1 deletion strain. Crude extracts were prepared for enzymatic assays by incubating cell pellet with CelLytic (Sigma), followed by bead beating. The decarboxylase reaction was performed in 100 mM Citrate Phosphate buffer with 1 mM Thiamine diphosphate, 1 mM MgCl2 and 50 μM to 20 mM aldehyde. The assay was coupled to an alcohol dehydrogenase which enabled continuous monitoring of NADH or NADPH oxidation at 340 nm.
Pyruvate is the target for multiple enzymes and a decarboxylation of the compound can lead to the production of acetaldehyde and subsequently ethanol. To prevent decarboxylation of pyruvate and increase 2-MBO production, a keto acid decarboxylase with a very high Km for pyruvate is ideal. […] The kinetic curves obtained with pyruvate as substrate were sigmoidal. This could be due to the fact that there are multiple enzymes in the crude extract with different Km for pyruvate. The final curve is therefore the superposition of individual curves. Absolute Km values […]. (FIG. 26.)

[7] = Keto acid decarboxylase activity on 2-keto butyrate, NADH dependent coupled assay with yeast ADH1; format: biochemical; conditions: crude extract
Method: as §1
NADH dependent coupled assays with yeast ADH1 were carried out to determine the decarboxylase activity of yeast and heterologous enzymes on the substrate 2 keto butyrate (2KB). 2KB is an intermediate in the production of 2-methylbutanol. A high decarboxylase activity on 2KB can lead to its conversion to propanal and reduce the yield of 2-MBO. […] (See FIG. 25 a-g.) The enzyme with the lowest Km for 2-ketobutyrate is yeast PDC1 and therefore the corresponding gene needs to be deleted in the 2-MBO production strain (data not shown).

[8] = Keto acid decarboxylase activity on 2-keto-3-methylvalerate, PDC/KDC-ADH6 coupled assay with crude extracts; format: biochemical; conditions: crude extract; for Km: enzyme expressed from p415 TEF in S. cerevisiae PDC1 deletion strain, read-out: Km 2 keto 3 methyl valerate
Method: as §1
The substrate specificity of the crude extract overexpressing different PDC/Kdcs was tested with a broad range of aldehydes. This included acetaldehyde, butyraldehyde and 2-methylbutyraldehyde. The concentration of the aldehydes was varied from 50 μM to 20 mM to determine the Km and Vmax values.
2-keto-3-methylvalerate (2K3MV) was tested for decarboxylation and subsequent reduction using PDC/KDC-ADH6 coupled assays.

[9] = Reductase activity of yeast ADH1 on various aldehydes; format: biochemical
Method: The ideal ADH for 2-MBO production should be able to reduce branched aldehydes. Therefore, the enzymes ADH1, ADH6, and ADH7 were overexpressed in yeast and were tested for their reductase activity on various aldehydes.

[10] = S. cerevisiae PDC1 deletion host

- Energy Content [3]: 111,052 BTU/gal
- Pump Octane (R + M)/2 ([3]; RBOB with Pump Octane 80.85 and RVP 7.37): 85.9
- Energy Content [4]: 84,519 BTU/gal
- Reid Vapor Pressure [4]: 2.3 psi
- Pump Octane (R + M)/2 ([4]; extrapolated from tests on blended fuels (blending octanes)): 130.9
- Boiling Point, max [5]: 79 °C
- Flash Point, min [5]: 13 °C
- Freezing Point, max [5]: −114 °C
Molecule: CCO [Ethanol, reference compound]
- Fuel Solubility in Water [1]: 100 wt %
- Water Solubility in Fuel [1]: 100 wt %
- Reid Vapor Pressure [2]: ~8.2^A psi

B1: L. lactis KDCA: Branched-chain alpha-ketoacid decarboxylase [Lactococcus lactis], SEQ ID NO: 61 (protein, listed as Lactococcus lactis)
chain: MYTVGDYLLDRLHELGIEEIFGVPGDYNLQFLDQIISREDMKWIGNANELNASYMADGYARTKKAAAFLTTFGVGELSAINGLAGSYAENLPVVEIVGSPTSKVQNDGKFVHHTLADGDFKHFMKMHEPVTAARTLLTAENATYEIDRVLSQLLKERKPVYINLPVDVAAAKAEKPALSLEKESSTTNTTEQVILSKIEESLKNAQKPVVIAGHEVISFGLEKTVTQFVSETKLPITTLNFGKSAVDESLPSFLGIYNGKLSEISLKNFVESADFILMLGVKLTDSSTGAFTHHLDENKMISLNIDEGIIFNKVVEDFDFRAVVSSLSELKGIEYEGQYIDKQYEEFIPSSAPLSQDRLWQAVESLTQSNETIVAEQGTSFFGASTIFLKSNSRFIGQPLWGSIGYTFPAALGSQIADKESRHLLFIGDGSLQLTVQELGLSIREKLNPICFIINNDGYTVEREIHGPTQSYNDIPMWNYSKLPETFGATEDRVVSKIVRTENEFVSVMKEAQADVNRMYWIELVLEKEDAPKLLKKMGKLFAEQNK
- Vmax Pyruvate [6]: 10069 µM/min/mg
- Vmax 2 keto butyrate [7, 10]: 2053.0 µM/min/mg
- Km ([7]; enzyme expressed from p415 TEF in S. cerevisiae PDC1 deletion strain): 6.05 mM
- Vmax 2 keto 3 methyl valerate [8, 10]: 987.3 µM/min/mg
- Km ([8]; listed as KDCA): 3.7 mM
- Km [8]: 3.75 mM

- fold less active on 2-methyl butaraldehyde than acetaldehyde [9]: ~5000 fold
B2: ADH1: Saccharomyces cerevisiae alcohol dehydrogenase ADH1, SEQ ID NO: 67 (protein, listed as Saccharomyces cerevisiae)
chain: MSIPETQKGVIFYESHGKLEYKDIPVPKPKANELLINVKYSGVCHTDLHAWHGDWPLPVKLPLVGGHEGAGVVVGMGENVKGWKIGDYAGIKWLNGSCMACEYCELGNESNCPHADLSGYTHDGSFQQYATADAVQAAHIPQGTDLAQVAPILCAGITVYKALKSANLMAGHWVAISGAAGGLGSLAVQYAKAMGYRVLGIDGGEGKEELFRSIGGEVFIDFTKEKDIVGAVLKATDGGAHGVINVSVSEAAIEASTRYVRANGTTVLVGMPAGAKCCSDVFNQVVKSISIVGSYVGNRADTREALDFFARGLVKSPIKVVGLSTLPEIYEKMEKGQIVGRYVVDTSK
